In patent publication US20220401514A1, “ANTIMICROBIAL, BACTERIOPHAGE-DERIVED POLYPEPTIDES AND THEIR USE AGAINST GRAM-NEGATIVE AND ACID-FAST BACTERIA” (CONTRAFECT CORPORATION, priority 2019, published 2022):
Converted amounts (≈) assume the structure as drawn.

Key:
[1] = test system: Stenotrophomonas-containing biofilm on explanted hemodialysis catheters; experiment: Antibiofilm activity in explanted hemodialysis catheters; format: cell-based, Stenotrophomonas spp.
Description: The explanted hemodialysis catheters were cut into equal length segments and bisected to expose the lumen.
The samples were treated for 4 hours at 37° C. before rinsing with Lactated Ringer's solution.
Three additional infected hemodialysis catheter samples were removed from two patients (one catheter from a first patient and two catheters from a second patient). […] The samples were incubated at 37° C. for 4 hours.

[2] = test system: P. aeruginosa strain CFS-1292; experiment: Checkerboard assay (FICI) with antibiotics, P. aeruginosa; format: cell-based, Pseudomonas aeruginosa; conditions: for Antibiotic FIC: P. aeruginosa CFS-1292; for Antibiotic MIC in checkerboard: P. aeruginosa CFS-1292, CAA + […] human serum
Description: Any known method to assess MIC may be used.
Checkerboards are constructed by first preparing columns of e.g., a 96-well polypropylene microtiter plate, wherein each well has the same amount of antibiotic diluted 2-fold along the horizontal axis. […] Bacteria are added to the drug combinations at concentrations of 1×10^5 […] in CAA, for example, with or without human serum or pulmonary surfactant. […] Summation fractional inhibitory concentrations (ΣFICs) are calculated for each drug and the minimum ΣFIC value (ΣFICmin) is used to determine the effect of the Chp peptide/antibiotic combination.
(§1) Checkerboard assays. […] Checkerboards were constructed by first preparing columns of a 96-well polypropylene microtiter plate, in which each well had the same amount of antibiotic diluted 2-fold along the horizontal axis. […] Summation fractional inhibitory concentration index (FICIs) were calculated for each drug and the minimum FICI was used to determine synergy. FICIs were calculated as follows: FICI=FIC A+FIC B, where FIC A is the MIC of each antibiotic in the combination/MIC of the each antibiotic alone, and FIC B is the MIC of each Chp peptide in the combination/MIC of each Chp peptide alone. The combination is considered synergistic when the FICI is ≤0.5, strongly additive when the FICI is >0.5 to <1, additive with the FICI is 1-<2, and antagonistic when the FICI is ≥2.
In the checkerboard assay, fractional inhibitory concentration index (FICI) values are calculated.

[3] = test system: Klebsiella pneumoniae strain 1139; experiment: Checkerboard assay (FICI) with antibiotics, K. pneumoniae; format: cell-based
Description: as §1

[4] = test system: Acinetobacter baumannii strain 30; experiment: Checkerboard assay (FICI) with antibiotics, A. baumannii; format: cell-based; conditions: checkerboard
Description: as §1
The results are shown below in Tables 22-27.

[5] = test system: carbapenem-resistant bacterial strains; experiment: organism not typed; format: cell-based; conditions: carbapenem-resistant isolate PA23
Description: Determination of Minimal Inhibitory Concentrations (MIC).

[6] = checkerboard, in combination with Chp4-M1
[7] = checkerboard, in combination with Chp6-M1
[8] = checkerboard, in combination with Chp10-M1

C[C@@H](O)[C@H]1C(=O)N2C(C(=O)O)=C(S[C@@H]3CN[C@H](C(=O)N(C)C)C3)[C@H](C)[C@H]12 [meropenem, reference compound]
eradication of biofilm on three additional catheter samples ([1]; Chp2-M1 1 μg/mL and 10 μg/mL, meropenem 1 μg/mL): did not eliminate biofilm
log10 CFU/g ([1]; second catheter sample from the second patient, 1 μg/mL, 4 hours): 3.16 log10 CFU/g
Antibiotic FIC ([2]; combined with Chp2-M1): 0.25
Antibiotic MIC in checkerboard ([2]; combined with Chp2-M1): 4 µg/mL
Antibiotic FIC ([2]; combined with Chp2): 0.25
Antibiotic MIC in checkerboard ([2]; combined with Chp2): 4 µg/mL
Antibiotic FIC ([2]; combined with Chp4-M1): 0.25
Antibiotic MIC in checkerboard ([2]; combined with Chp4-M1): 4 µg/mL
Antibiotic FIC ([2]; combined with Chp6-M1): 0.25
Antibiotic MIC in checkerboard ([2]; combined with Chp6-M1): 4 µg/mL
Antibiotic FIC ([2]; combined with Chp10-M1): 0.25
Antibiotic MIC in checkerboard ([2]; combined with Chp10-M1): 2 µg/mL
Antibiotic FIC ([2]; combined with Unp2-M1): 0.25
Antibiotic MIC in checkerboard ([2]; combined with Unp2-M1): 4 µg/mL
Antibiotic FIC [3, 6]: 0.125
Antibiotic MIC [3, 6]: 0.007812 µg/mL
Antibiotic FIC [3, 7]: 0.25
Antibiotic MIC [3, 7]: 0.01562 µg/mL
Antibiotic FIC [3, 8]: 0.125
Antibiotic MIC [3, 8]: 0.01562 µg/mL
Antibiotic FIC ([3]; checkerboard, in combination with Unp2-M1): 0.03125
Antibiotic FIC ([3]; combined with Chp2): 0.25
Antibiotic MIC in checkerboard ([3]; combined with Chp2): 0.01562 µg/mL
Antibiotic FIC ([3]; combined with Chp2-M1): 0.25
Antibiotic MIC in checkerboard ([3]; combined with Chp2-M1): 0.01562 µg/mL
Antibiotic FIC ([4]; in combination with Chp2): 0.25
Antibiotic FIC ([4]; in combination with Chp2-M1): 0.25
Antibiotic FIC ([4]; in combination with Chp4-M1): 0.25
Antibiotic FIC ([4]; in combination with Chp6-M1): 0.25
Antibiotic FIC ([4]; in combination with Chp10-M1): 0.125
Antibiotic FIC ([4]; in combination with Unp2-M1): 0.25
MIC [5]: 8 µg/mL (≈ 20.9 µM)
